The results in this text go back to patent publication US12544463B2, “Deuterium substituted positron emission tomography (PET) imaging agents and their pharmacological application” (Five Eleven Pharma Inc., priority 2017, dated 2026).

Like-named read-outs stand apart in the source and are kept apart here.

The target of test [1] is T1, serotonin transporters (SERT) (Rattus norvegicus, UniProt P31652).
T1 construct: expressed in transfected cells; host or cells: LLC-PK1 (LLC-SERT)
Kind of test: In vitro binding assay, LLC-SERT membrane homogenates, [^125I]IDAM. The following applies: for Ki: 0.2 nM [^125I]IDAM, LLC-SERT membranes, read-out: Ki (SERT binding affinity) (converted). The procedure:
The membrane homogenates of serotonin transporters (LLC-SERT, which were expressed in a common parental cell line LLC-PK1) were prepared and used for the binding assays. Competitive binding assays were performed in a final volume of 0.25 mL. […] Nonspecific binding was defined with 10 μM citalopram. Incubation was carried out for 60 min at room temperature and the bound ligand was collected on glass fiber filters presoaked with 1% polyethylenimine (SIGMA, St. Louis, MO) and counted in a gamma counter (Wizard^2, Perkin Elmer).

The target in test [2] is T2, Aβ aggregates of human AD brain homogenates (Homo sapiens, UniProt P05067).
T2 construct: from tissue; host or cells: human Alzheimer's disease brain homogenate
The experiment in a line: In vitro binding assay for Aβ aggregates of human AD brain homogenates. Conditions: for Ki: Avg ± SD, n = 3, read-out: Ki of cold competing drug. The procedure: Competitive binding assays were performed in 12×75 mm borosilicate glass tubes. The reaction mixture contained 100 μL of AD brain homogenates (20-25 μg), 100 μL of [^18F]AV-45 or [^18F]AV-45-D3 (˜150,000 cpm), and 100 μL of competing compounds (10^−5 to 10^−10 M diluted serially in PBS containing 0.1% bovine serum albumin) in a final volume of […]. Nonspecific binding was defined in the presence of 1 μM of IMPY (6-iodo-2-(4′-dimethylamino-)phenyl-imidazo[1,2-a]pyridine) in the same assay tubes. The mixture was incubated for 60 min at room temperature, and the bound and the free radioactivity were separated by vacuum filtration through Whatman GF/B filters using a Brandel M-24R cell harvester, followed by washing with PBS buffer three times. The radioactivity on the filters was counted with a gamma counter (Wizard^2, Perkin-Elmer). Data were analyzed using the nonlinear least-square curve fitting program LIGAND to determine IC50.

[3] abbreviates: value used in Cheng-Prusoff equation.

T1 sequence (P31652 whole entry): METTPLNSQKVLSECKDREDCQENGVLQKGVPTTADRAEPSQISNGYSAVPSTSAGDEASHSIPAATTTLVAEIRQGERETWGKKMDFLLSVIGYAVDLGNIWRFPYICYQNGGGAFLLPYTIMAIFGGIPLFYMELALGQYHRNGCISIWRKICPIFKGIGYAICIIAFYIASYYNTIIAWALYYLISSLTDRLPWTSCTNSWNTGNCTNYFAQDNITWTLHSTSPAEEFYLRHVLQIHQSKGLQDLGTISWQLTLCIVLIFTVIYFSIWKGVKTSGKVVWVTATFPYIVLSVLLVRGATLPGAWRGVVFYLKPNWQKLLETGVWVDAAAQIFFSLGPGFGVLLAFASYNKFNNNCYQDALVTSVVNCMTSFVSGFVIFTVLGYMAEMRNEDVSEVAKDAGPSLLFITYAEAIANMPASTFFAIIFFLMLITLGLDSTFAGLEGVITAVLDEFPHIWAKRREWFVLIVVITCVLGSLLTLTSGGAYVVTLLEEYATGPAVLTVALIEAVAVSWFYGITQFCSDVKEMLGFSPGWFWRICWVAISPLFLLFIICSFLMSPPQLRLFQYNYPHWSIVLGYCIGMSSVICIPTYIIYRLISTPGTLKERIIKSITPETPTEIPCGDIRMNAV
T2 sequence (P05067 672-713 limits assumed): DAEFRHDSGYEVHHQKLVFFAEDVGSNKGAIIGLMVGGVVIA

`[2H]C([2H])(F)C([2H])([2H])C([2H])([2H])Oc1ccc(Sc2ccccc2N)c(CN)c1` [III-5-8]: the Ki in test [1] is 44.9 ± 2.5 nM.

`[2H]C([2H])([2H])Nc1ccc(/C=C/c2ccc(OCCOCCOCCF)cc2)cc1` [AV-1-D3, IIa2]: the Ki worked out at 4.15 ± 0.75 nM in test [2] (hot ligand ^18F-AV-45-D3) and 3.35 ± 0.88 nM in test [2] (hot ligand ^18F-AV-45).

`CN(C)Cc1cc(O)ccc1Sc1ccc(F)cc1N` [III-4-19]: the Ki in test [1] is 0.22 nM.

`CNCc1cc(OCCCF)ccc1Sc1ccccc1N` [III-6-5]: in test [1], the Ki is 5.26 ± 0.66 nM.

Turning to `[2H]C([2H])(F)C([2H])([2H])C([2H])([2H])Oc1ccc(Sc2ccc(Cl)cc2N)c(CN(C)C)c1` [III-4-25], the Ki in test [1] was 0.009 nM.

As to `CN(C)Cc1cc(OCCCF)ccc1Sc1ccc(F)cc1N`, the Ki in test [1] is 0.022 ± 0.016 nM.

`CN(C)Cc1ccccc1Sc1ccc(I)cc1CO` [[^125I]IDAM, reference compound] showed a Kd in test [1] (setting [3]) of 0.2 nM.

Take `NCc1cc(OCCCF)ccc1Sc1ccccc1N` [III-5-5]: in test [1], the Ki is 39.3 ± 11.9 nM.

Take `[2H]C([2H])([2H])Nc1ccc(/C=C/c2ccc(OCCOCCOCCF)nc2)cc1` [AV-45-D3, IIa1]: the figures for the Ki in test [2] (hot ligand ^18F-AV-45-D3) and in test [2] (hot ligand ^18F-AV-45) were 3.25 ± 0.82 nM and 3.44 ± 1.22 nM, respectively. In test [2] (setting [3]), this compound registered an equilibrium dissociation constant (Kd) of 3.51 nM.

On to `[2H]C([2H])(F)C([2H])([2H])C([2H])([2H])Oc1ccc(Sc2ccc(Br)cc2N)c(CN(C)C)c1` [III-4-26], for which the Ki in test [1] is 0.021 nM.

`[2H]C([2H])([2H])N(Cc1cc(OCCCF)ccc1Sc1ccccc1N)C([2H])([2H])[2H]` (single isomer, unassigned) [III-2]: in test [1], the Ki is 0.032 ± 0.013 nM.
